Laboratory results published in ChEMBL document CHEMBL1201862, “PubChem BioAssay data set” (2004).
Active and inactive are the calls of the source.

Legend:
X-box-binding protein 1 = X-box-binding protein 1 (Homo sapiens, UniProt P17861); format: functional, Cricetulus griseus;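 note: confirmatory dose-response counter-screen serving a CHOP assay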
Saccharomyces cerevisiae = experiment: S. cerevisiae Caspase-1/ASC signal blockers IC50, NALP1 inhibitor project selectivity test (AID 488863); format: functional, organism-based
[1] = target: NACHT, LRR and PYD domains-containing protein 1 (Homo sapiens, UniProt Q9C000); experiment: NALP1 inhibitors in yeast, dose response, luminescent (AID 488860); format: functional
[2] = target: Protein phosphatase methylesterase 1 (Homo sapiens, UniProt Q9Y570); experiment: endogenous PME-1 and serine hydrolase inhibition – cell lysate, mouse brain cytosol, FP-rhodamine, gel ABPP, selectivity assay for PME-1 inhibitor project, dose response, panel member PME-1 Assay Panel member description: Inhibition of endogenously expressed PME-1 (AID 2366)
[3] = target: T1, Short transient receptor potential channel 4 (Mus musculus, UniProt Q9QUQ5); experiment: potentiation of DAMGO-evoked TRPC4 calcium signal – cell-based, HEK293 TRPC4/mu-opioid, Fluo-4 calcium, EC20 DAMGO, dose response (AID 434941); format: functional
T1 sequence (Q9QUQ5 whole entry): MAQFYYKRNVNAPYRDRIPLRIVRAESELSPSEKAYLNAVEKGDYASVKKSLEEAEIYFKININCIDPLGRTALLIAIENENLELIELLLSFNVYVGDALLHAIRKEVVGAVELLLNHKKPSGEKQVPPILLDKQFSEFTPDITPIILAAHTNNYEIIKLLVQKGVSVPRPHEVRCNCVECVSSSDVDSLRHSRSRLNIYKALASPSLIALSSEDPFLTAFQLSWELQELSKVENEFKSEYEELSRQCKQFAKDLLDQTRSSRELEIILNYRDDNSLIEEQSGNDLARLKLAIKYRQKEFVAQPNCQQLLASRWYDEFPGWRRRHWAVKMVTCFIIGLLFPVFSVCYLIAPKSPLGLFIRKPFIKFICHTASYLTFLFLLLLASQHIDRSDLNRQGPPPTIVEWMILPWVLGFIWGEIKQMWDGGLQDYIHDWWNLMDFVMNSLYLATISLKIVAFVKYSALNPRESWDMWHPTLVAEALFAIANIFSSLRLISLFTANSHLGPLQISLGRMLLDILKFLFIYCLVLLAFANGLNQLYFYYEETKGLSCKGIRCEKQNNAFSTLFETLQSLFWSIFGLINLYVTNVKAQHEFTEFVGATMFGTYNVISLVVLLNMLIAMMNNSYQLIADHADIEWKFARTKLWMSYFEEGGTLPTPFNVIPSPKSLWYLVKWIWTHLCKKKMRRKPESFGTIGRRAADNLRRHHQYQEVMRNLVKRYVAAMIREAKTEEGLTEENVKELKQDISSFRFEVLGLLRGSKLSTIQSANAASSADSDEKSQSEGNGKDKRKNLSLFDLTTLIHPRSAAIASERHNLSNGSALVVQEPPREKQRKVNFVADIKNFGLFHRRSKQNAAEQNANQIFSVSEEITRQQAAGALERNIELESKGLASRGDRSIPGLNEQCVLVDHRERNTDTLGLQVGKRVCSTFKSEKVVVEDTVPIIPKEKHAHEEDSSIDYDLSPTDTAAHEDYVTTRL

[4] = target: T1, Short transient receptor potential channel 4; experiment: calcium entry via TRPC4 opening agents – cell-based, HEK293 TRPC4/mu-opioid, Fluo-4 calcium, dose response (AID 434937); format: functional
Cytochrome P450 2C19 = Cytochrome P450 2C19 (Homo sapiens, UniProt P33261); experiment: Cytochrome panel assay with activity outcomes. Panel member name: p450-cyp2c19 Compounds with AC50 equal or less than 10 uM are considered active; format: functional; details: read-out: AC50
Cytochrome P450 2D6 = Cytochrome P450 2D6 (Homo sapiens, UniProt P10635);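 note: CYP2D6 member of a cytochrome P450 panel assay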
[5] = target: G-protein coupled receptor 35 (Homo sapiens, UniProt Q9HC97); experiment: inhibition of zaprinast-stimulated GPR35 beta-arrestin translocation – imaging, U2OS, beta-arrestin-GFP, zaprinast agonist, primary screen (AID 2058); format: functional;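 note: antagonist potency meaning inhibition of agonist-induced arrestin redistribution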
[6] = test system: Streptococcus sp. 'group A'; experiment: Streptococcus pyogenes SK(-)GAS viability under kanamycin – luminescence, BacTiterGlo, confirmation, counter-screen for streptokinase expression inhibitor project, dose response (AID 1900); format: functional, organism-based
Streptokinase A = target: T2, Streptokinase A (Streptococcus pyogenes serotype M1, UniProt P10520); experiment: viability-normalized secreted streptokinase activity reduction – plasminogen activation absorbance, OD405, dose response (AID 1914); format: functional, Streptococcus pyogenes M1 GAS;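 note: secreted streptokinase activity via plasminogen activation per viability signal from cell pellet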
T2 sequence (P10520 whole entry): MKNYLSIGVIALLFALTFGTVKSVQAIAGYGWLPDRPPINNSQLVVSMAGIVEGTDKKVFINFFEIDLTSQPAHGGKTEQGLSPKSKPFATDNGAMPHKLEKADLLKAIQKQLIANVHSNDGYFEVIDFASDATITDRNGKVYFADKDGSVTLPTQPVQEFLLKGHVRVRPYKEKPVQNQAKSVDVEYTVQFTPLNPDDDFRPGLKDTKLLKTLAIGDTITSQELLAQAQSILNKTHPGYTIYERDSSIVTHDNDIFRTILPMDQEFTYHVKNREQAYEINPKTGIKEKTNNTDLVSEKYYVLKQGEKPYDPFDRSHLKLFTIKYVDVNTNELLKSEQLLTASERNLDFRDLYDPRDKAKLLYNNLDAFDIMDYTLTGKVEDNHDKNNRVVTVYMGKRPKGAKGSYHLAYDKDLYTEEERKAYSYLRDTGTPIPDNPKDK

Streptococcus = experiment: GAS UMAA2166 growth inhibition – luminescence, BacTiterGlo, counter-screen for streptokinase expression inhibitor project, dose response (AID 1915); format: functional, organism-based;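 note: potency for reduction of bacterial viability or growth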
HEK293 [7] = experiment: inhibition of NOD1-driven NF-kB reporter – cell-based, luminescence, uHTS, primary screen (AID 1578); format: functional; details: Homo sapiens
HEK293 [8] = experiment: cells; format: functional, cell-based; details: Homo sapiens
HEK293 [9] = experiment: cells; format: functional, cell-based; details: Homo sapiens; remark: listed apart in the source
HEK293 [10] = experiment: NOD2 signaling inhibitors in MDP-stimulated cells, cell-based, uHTS, luminescence (AID 2001); format: functional; details: Homo sapiens
[11] = antiviral protection against BTV-induced cell death – arbovirus, BSR cells, confirmation (AID 1250); format: functional;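 note: protection from viral cytopathic effect measured as cell viability by ATP luminescence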
Tumor necrosis factor = Tumor necrosis factor (Homo sapiens, UniProt P01375); experiment: analog potency on TNFa NF-kB signaling – cell-based, revised, SAR follow-up (AID 2337); format: functional
[12] = target: T3, Nucleotide-binding oligomerization domain-containing protein 1 (Homo sapiens, UniProt Q9Y239); experiment: blockers of NOD1 pathway activity – revised, SAR follow-up (AID 2333); format: functional
T3 sequence (Q9Y239 whole entry): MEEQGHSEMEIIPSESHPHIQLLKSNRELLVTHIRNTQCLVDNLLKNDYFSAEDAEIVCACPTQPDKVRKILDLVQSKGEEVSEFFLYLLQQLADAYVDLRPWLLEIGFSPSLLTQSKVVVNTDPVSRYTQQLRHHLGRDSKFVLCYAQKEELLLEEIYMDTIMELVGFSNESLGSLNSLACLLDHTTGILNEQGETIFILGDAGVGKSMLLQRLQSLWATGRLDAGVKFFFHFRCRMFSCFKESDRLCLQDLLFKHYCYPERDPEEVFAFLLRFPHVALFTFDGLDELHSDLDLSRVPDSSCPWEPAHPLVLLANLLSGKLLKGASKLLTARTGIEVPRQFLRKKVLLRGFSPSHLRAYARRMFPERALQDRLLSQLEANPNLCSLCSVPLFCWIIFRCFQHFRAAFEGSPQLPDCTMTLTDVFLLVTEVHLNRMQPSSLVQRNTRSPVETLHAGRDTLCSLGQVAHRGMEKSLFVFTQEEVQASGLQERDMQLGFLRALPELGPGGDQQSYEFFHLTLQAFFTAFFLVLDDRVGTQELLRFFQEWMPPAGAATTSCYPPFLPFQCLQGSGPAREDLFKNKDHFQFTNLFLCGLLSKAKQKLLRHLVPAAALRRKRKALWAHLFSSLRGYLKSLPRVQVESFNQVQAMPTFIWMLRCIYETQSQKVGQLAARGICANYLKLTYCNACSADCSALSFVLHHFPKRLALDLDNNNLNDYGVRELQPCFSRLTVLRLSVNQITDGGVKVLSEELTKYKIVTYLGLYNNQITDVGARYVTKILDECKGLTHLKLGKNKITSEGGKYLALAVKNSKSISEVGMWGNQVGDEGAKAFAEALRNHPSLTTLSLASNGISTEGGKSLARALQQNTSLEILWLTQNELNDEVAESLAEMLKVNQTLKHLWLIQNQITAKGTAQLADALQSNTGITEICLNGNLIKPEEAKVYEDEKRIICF

[13] = target: Nucleotide-binding oligomerization domain-containing protein 2 (Homo sapiens, UniProt Q9HC29); experiment: PubChem AID 2334; format: functional
HEK293 [14] = experiment: cells; details: Homo sapiens
[15] = NIH/3T3 cell viability loss – mouse embryonic fibroblasts, dry powder, set 2, cytotoxicity control, dose response (AID 493247); format: functional, cell-based; details: Fibroblast
Trypanosoma cruzi = experiment: anti-trypanosomal activity in host cells – cell-based, plate reader, dry powder, set 3, dose response (AID 493197); format: functional
[16] = target: T4, Intestinal-type alkaline phosphatase (Homo sapiens, UniProt P09923); experiment: Dose Response confirmation of uHTS hits from a small molecule inhibitors of human intestinal alkaline phosphatase via a luminescent assay. [Related pubchem assays (depositor defined):AID2544, AID2574]; format: functional
[17] = target: T4, Intestinal-type alkaline phosphatase; experiment: human intestinal alkaline phosphatase activators, dose response, biochemical, luminescence, uHTS hits (AID 463120); format: functional
[18] = target: 1-acylglycerol-3-phosphate O-acyltransferase ABHD5/Perilipin-5 (Homo sapiens, UniProt Q00G26+Q8WTS1); experiment: Luminescence-based biochemical high throughput dose response assay for inhibitors of the interaction of the lipase co-activator protein, abhydrolase domain containing 5 (ABHD5) with perilipin-5 (MLDP; PLIN5) (2K validation set). [Related pubchem assays (depositor defined):AID493035, AID493241]
Perilipin-1/ABHD5 = Perilipin-1/ABHD5 (Homo sapiens, UniProt O60240+Q8WTS1); experiment: Luminescence-based biochemical high throughput dose response assay for inhibitors of the interaction of the lipase co-activator protein, abhydrolase domain containing 5 (ABHD5) with perilipin-1 (PLIN1) (2K validation set). [Related pubchem assays (depositor defined):AID493027, AID493057]
[19] = target: Neurotensin receptor type 1 (Homo sapiens, UniProt P30989); format: functional;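 note: Image-based confirmatory dose-response assay measuring agonist activity at NTR1; NTR1-expressing U2OS osteosarcoma cells imaged for beta-arrestin GFP spot formation; agonist potency where compounds increase beta-arrestin recruitment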
Caspase-3 = target: T5, Caspase-3 (Homo sapiens, UniProt P42574); experiment: activators of human procaspase-3 D3A mutant – biochemical, absorbance, PC-3 D3A mutant, counter-screen for dual procaspase-3/7 activator project, dose response (AID 504328)
T5 sequence (P42574 whole entry): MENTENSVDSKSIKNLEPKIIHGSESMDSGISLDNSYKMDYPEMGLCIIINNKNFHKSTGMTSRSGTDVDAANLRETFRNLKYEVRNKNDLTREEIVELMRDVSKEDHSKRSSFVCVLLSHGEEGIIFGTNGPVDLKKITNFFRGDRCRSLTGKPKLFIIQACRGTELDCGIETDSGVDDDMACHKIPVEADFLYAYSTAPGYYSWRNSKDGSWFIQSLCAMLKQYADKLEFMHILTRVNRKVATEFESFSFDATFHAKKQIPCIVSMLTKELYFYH

Caspase-7 = Caspase-7 (Homo sapiens, UniProt P55210); experiment: potency of procaspase-7 enzyme activation – biochemical, absorbance, human, dual procaspase-3/-7 activator project, dose response (AID 504330)

T4 sequence (P09923 whole entry): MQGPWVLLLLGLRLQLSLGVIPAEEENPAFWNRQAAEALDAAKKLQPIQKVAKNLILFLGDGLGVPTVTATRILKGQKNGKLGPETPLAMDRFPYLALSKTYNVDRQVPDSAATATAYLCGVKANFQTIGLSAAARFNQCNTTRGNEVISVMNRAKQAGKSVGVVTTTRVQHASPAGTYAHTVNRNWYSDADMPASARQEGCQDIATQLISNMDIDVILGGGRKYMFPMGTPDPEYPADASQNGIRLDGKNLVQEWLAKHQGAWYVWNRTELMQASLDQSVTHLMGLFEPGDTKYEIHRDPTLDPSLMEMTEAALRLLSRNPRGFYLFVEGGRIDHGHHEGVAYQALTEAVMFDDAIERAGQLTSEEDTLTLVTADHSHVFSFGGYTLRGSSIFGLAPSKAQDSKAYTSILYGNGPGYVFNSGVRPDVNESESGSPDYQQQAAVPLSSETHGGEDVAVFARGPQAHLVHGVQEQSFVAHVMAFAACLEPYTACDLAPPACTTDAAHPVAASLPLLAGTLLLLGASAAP
Chain of G-protein coupled receptor 35 (Q9HC97 whole entry): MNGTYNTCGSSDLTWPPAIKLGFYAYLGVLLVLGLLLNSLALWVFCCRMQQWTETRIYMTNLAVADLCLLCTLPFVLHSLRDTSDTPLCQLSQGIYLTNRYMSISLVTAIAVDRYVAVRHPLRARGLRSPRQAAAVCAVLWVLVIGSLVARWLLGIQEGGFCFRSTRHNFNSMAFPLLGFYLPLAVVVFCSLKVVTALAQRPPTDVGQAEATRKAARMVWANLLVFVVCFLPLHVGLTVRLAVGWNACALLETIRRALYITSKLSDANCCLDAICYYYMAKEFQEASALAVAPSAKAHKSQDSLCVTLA
Chain of Cytochrome P450 2D6 (P10635 whole entry): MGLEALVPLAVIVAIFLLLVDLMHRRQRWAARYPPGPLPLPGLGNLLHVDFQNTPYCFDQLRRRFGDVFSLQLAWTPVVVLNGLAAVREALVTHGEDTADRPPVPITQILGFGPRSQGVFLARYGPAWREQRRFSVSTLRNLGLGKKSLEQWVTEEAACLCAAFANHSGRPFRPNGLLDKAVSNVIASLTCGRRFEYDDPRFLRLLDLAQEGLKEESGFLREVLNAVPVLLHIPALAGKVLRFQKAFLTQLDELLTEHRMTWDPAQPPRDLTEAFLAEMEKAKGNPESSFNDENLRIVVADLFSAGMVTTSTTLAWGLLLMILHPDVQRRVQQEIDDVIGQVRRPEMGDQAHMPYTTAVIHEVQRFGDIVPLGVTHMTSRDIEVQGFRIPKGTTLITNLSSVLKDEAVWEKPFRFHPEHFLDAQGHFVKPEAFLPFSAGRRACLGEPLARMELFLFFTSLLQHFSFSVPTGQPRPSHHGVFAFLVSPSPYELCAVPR
Chain of Nucleotide-binding oligomerization domain-containing protein 2 (Q9HC29 whole entry, the tested form may be a part): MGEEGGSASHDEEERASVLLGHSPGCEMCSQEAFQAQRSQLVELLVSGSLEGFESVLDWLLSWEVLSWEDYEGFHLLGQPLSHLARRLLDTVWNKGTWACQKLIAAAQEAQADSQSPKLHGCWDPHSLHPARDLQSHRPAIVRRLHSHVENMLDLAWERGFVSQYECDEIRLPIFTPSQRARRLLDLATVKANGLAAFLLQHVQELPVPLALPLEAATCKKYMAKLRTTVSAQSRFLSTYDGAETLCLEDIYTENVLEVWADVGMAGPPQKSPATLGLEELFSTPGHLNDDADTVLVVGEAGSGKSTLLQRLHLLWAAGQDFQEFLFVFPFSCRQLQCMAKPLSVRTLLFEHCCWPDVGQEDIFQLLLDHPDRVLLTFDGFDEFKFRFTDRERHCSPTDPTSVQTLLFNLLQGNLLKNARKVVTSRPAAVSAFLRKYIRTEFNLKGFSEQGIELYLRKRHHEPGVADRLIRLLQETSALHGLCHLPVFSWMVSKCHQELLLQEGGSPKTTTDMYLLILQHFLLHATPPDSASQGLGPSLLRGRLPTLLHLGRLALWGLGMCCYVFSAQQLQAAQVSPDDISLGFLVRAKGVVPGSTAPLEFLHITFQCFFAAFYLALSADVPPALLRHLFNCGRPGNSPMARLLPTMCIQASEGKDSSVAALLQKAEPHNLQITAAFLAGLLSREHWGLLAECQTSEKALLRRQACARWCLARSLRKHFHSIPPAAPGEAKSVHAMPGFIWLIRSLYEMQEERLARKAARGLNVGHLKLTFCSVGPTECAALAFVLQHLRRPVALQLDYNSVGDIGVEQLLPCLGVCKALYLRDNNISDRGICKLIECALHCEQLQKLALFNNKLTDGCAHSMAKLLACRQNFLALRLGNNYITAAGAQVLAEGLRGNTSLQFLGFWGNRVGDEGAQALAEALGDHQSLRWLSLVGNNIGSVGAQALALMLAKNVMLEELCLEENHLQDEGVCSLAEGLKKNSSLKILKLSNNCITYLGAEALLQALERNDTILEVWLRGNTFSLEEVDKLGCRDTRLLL
Chain of Tumor necrosis factor (P01375 whole entry, the tested form may be a part): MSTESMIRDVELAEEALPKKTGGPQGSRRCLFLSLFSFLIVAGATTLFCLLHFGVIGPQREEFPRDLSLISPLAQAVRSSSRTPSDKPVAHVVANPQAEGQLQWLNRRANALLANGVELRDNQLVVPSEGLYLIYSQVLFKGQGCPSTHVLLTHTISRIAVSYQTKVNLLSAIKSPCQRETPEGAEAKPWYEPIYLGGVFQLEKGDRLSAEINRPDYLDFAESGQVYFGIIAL
Chain of Perilipin-1/ABHD5 (Q8WTS1 whole entry, the tested form may be a part): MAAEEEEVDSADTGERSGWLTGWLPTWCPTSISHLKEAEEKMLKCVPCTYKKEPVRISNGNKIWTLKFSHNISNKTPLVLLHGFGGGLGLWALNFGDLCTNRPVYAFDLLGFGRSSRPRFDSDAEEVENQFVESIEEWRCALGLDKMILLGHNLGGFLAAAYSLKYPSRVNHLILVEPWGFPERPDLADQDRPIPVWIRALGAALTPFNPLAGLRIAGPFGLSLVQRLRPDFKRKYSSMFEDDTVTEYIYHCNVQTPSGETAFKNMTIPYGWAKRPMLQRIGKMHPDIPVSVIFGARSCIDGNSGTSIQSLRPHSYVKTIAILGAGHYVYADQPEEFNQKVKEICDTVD
Chain of Perilipin-1/ABHD5 (O60240 whole entry, the tested form may be a part): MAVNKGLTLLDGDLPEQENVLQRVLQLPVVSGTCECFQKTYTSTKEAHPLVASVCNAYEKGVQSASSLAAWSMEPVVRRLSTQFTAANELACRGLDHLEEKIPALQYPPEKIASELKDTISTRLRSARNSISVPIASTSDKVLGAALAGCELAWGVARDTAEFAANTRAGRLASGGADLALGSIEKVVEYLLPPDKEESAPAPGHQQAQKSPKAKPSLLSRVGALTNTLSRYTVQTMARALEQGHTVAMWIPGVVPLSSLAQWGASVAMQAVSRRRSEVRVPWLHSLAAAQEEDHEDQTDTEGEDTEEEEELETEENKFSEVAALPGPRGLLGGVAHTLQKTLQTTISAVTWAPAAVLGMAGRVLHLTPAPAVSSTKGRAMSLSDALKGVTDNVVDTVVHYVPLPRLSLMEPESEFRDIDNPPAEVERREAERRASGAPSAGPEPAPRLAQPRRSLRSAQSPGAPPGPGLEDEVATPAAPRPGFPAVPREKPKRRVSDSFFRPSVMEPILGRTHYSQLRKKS
Chain of X-box-binding protein 1 (P17861 whole entry): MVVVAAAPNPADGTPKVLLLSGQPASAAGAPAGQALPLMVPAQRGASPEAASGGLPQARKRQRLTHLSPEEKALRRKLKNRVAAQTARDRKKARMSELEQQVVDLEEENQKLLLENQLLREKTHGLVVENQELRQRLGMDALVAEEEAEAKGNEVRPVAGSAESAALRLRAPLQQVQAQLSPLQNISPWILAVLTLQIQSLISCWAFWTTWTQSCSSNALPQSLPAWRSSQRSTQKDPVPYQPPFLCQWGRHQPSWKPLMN
Chain of Neurotensin receptor type 1 (P30989 whole entry): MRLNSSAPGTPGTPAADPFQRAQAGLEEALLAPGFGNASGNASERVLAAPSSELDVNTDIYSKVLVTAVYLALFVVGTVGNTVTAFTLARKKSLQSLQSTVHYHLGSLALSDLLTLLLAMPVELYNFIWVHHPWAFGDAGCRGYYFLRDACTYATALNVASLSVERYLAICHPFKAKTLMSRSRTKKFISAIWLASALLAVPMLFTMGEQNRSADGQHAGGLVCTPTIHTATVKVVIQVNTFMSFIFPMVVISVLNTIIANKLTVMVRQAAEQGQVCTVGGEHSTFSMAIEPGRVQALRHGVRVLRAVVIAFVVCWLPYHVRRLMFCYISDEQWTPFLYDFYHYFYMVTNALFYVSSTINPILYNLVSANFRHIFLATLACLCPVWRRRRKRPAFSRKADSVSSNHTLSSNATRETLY
Chain of Cytochrome P450 2C19 (P33261 whole entry): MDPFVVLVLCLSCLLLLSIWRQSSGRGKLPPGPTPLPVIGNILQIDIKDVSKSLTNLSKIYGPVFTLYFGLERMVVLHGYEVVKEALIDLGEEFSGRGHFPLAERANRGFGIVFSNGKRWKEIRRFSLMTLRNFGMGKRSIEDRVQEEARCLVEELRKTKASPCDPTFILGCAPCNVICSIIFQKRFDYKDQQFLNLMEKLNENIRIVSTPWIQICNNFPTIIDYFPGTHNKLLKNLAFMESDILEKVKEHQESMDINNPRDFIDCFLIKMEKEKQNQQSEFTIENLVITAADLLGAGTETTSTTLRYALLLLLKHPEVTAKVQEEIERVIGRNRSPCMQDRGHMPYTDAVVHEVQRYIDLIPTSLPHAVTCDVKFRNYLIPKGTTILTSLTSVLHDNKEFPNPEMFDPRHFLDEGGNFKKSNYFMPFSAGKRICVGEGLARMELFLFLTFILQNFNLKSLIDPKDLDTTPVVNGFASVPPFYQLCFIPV

CC(C)Cc1ccc(C(C)C(=O)Nc2nccs2)cc1 (stereo not given)
Absolute IC50 (XBP1) (X-box-binding protein 1): 10 µM

O=C(NCCCc1ccccc1)c1ccccc1O
IC50 (Saccharomyces cerevisiae): 11.5 µM (active) | IC50 [1]: 13.1 µM (active)

N#CC(C#N)=Cc1cccn1S(=O)(=O)c1ccc(F)cc1F
IC50 [2]: 20 µM (inactive)

Cc1cc(OCCNCCO)cc(C)c1Cl
EC50 [3]: 0.09 µM (active) | EC50 [4]: 0.841 µM (active) | AC50 (Cytochrome P450 2C19): 7.08 µM (inconclusive) | AC50 (Cytochrome P450 2D6): 25.1 µM (inconclusive)

CC(C)c1ccc(N2C(=O)/C(=C/N(C)C)SC2=S)cc1
IC50 [5]: 0.835 µM (active) | EC50 [6]: 3.85 µM (active) | EC50 (Streptokinase A): 5.29 µM (active) | EC50 (Streptococcus): 57 µM (active)

CS(=O)(=O)c1ccc2nc(NC(=O)c3cccc(NS(=O)(=O)c4ccc(F)c(F)c4)c3)sc2c1
EC50 (HEK293 [7]): 5.5 µM (active) | IC50 (HEK293 [8]): > 20 µM (inactive) | IC50 (HEK293 [9]): > 20 µM (inactive) | IC50 (HEK293 [10]): > 20 µM (inactive) | IC50 [11]: 23.7 µM (active) | IC50 (Tumor necrosis factor): 16.9 µM (active) | IC50 [12]: 3.16 µM (active) | IC50 [13]: 18.4 µM (active) | IC50 (HEK293 [14]): > 20 µM (inactive)

COc1ccc(CCN(C)C(=O)C2CCCN(Cc3ccc(F)cc3)C2)cc1OC (stereo not given)
AC50 [15]: 64.7 µM (active) | AC50 (Trypanosoma cruzi): 4.33 µM (active)

CCn1cc(CN2CCN(C)C(CCO)C2)c2ccccc21 (stereo not given)
IC50 [16]: > 100 µM (inactive) | EC50 [17]: > 100 µM (inactive)

O=C1ON=C(c2ccc(Cl)cc2)/C1=C/c1ccc(O)cc1
IC50 [18]: 3.1 µM (active) | IC50 (Perilipin-1/ABHD5): 2.28 µM (active) | EC50 [19]: 8.29 µM (active)

COc1ccc(-c2cc(C(=O)OC3CCOC3=O)c3ccccc3n2)cc1OC (stereo not given)
EC50 (Caspase-3): > 85.3 µM (inactive) | EC50 (Caspase-7): > 85.3 µM (inactive)
